How the values were obtained:
Type in all cases: in vivo
[1] = tested on: weeds; test: Post-emergence test/greenhouse
Experimental: (§1) To produce a suitable preparation of active compound, 1 part by weight of active compound is mixed with the stated amount of solvent, the stated amount of emulsifier is added and the concentrate is diluted with water to the desired concentration.
(§2) Test plants which have a height of 5-15 cm are sprayed with the preparation of the active compound in such a way as to apply the particular amounts of active compound desired per unit area. The concentration of the spray liquor is chosen so that the amounts of active compound desired in each case are applied in 1000 l of water/ha.
(§3) After three weeks, the degree of damage to the plants is rated in % damage in comparison with the development of the untreated control.
(§4) The figures denote: • 0%=no effect (like untreated control) • 100%=total destruction

[2] = tested on: Echinochloa; test: Post-emergence test/greenhouse; details: rated after three weeks vs untreated control
Experimental: as §1, §2, §3, §4

[3] = tested on: Abutilon; test: Post-emergence test/greenhouse; details: rated after three weeks vs untreated control
Experimental: as §1, §2, §3, §4

[4] = tested on: Matricaria; test: Post-emergence test/greenhouse; details: rated after three weeks vs untreated control
Experimental: as §1, §2, §3, §4

[5] = tested on: Alopecurus; test: Post-emergence test/greenhouse; details: rated after three weeks vs untreated control
Experimental: as §1, §2, §3, §4

[6] = tested on: Amaranthus; test: Pre-emergence test/greenhouse; details: after three weeks
Experimental: as §1
(§5) Seeds of the test plants are sown in normal soil. After about 24 hours, the soil is sprayed with the preparation of the active compound. Advantageously, the amount of water per unit area is kept constant. The active compound concentration in the preparation is not important, only the active compound application rate per unit area is critical.
as §3, §4

[7] = tested on: Chenopodium; test: Pre-emergence test/greenhouse; details: after three weeks
Experimental: as §1, §5, §3, §4

[8] = tested on: Stellaria; test: Pre-emergence test/greenhouse; details: after three weeks
Experimental: as §1, §5, §3, §4

[9] = tested on: Sorghum; test: Pre-emergence test/greenhouse; details: after three weeks
Experimental: as §1, §5, §3, §4

[10] = tested on: Alopecurus; test: Pre-emergence test/greenhouse; details: after three weeks
Experimental: as §1, §5, §3, §4

[11] = tested on: Lolium; test: Pre-emergence test/greenhouse; details: after three weeks
Experimental: as §1, §5, §3, §4

[12] = tested on: weeds; test: Pre-emergence test (overall statement); details: application rates between 30 g and 125 g of a.i. per hectare
Experimental: as §1, §5, §3, §4

[13] = application rate 30 g of ai./ha
[14] = application rate 60 g of ai./ha
[15] = application rate 125 g of ai./ha

Row | SMILES | activity against weeds [1] | degree of damage to the plants, Echinochloa [2, 13] | degree of damage to the plants, Abutilon [3, 13] | degree of damage to the plants, Matricaria [4, 13] | degree of damage to the plants, Alopecurus [5, 13] | Amaranthus, % damage ([6]; 60 g of ai./ha) | Chenopodium, % damage ([7]; 60 g of ai./ha) | Steltaria, % damage ([8]; 60 g of ai./ha) | Sorghum, % damage ([9]; 60 g of ai./ha) | Alopecurus, % damage ([10]; 60 g of ai./ha) | Lolium, % damage ([11]; 60 g of ai./ha) | activity against weeds [12] | Chenopodium, % damage ([7]; 30 g of ai./ha) | Steltaria, % damage ([8]; 30 g of ai./ha) | Sorghum, % damage ([9]; 30 g of ai./ha) | Alopecurus, % damage ([10]; 30 g of ai./ha) | also measured
1 | CCOc1cccc(C(F)(F)F)c1S(=O)(=O)NC(=O)Nc1nc(C)nc(OC)n1 [Example 4] | very strong activity against weeds | 90% | 100% | 100% | 90% | 100% | 100% | 95% | 100% | 100% | 100% | very strong activity against weeds | – | – | – | – | –
2 | COc1nc(C)nc(NC(=O)NS(=O)(=O)c2c(OC)cccc2C(F)(F)F)n1 [Example 5] | very strong activity against weeds | 100% | 100% | 100% | 80% | 100% | 100% | 100% | 100% | 100% | 100% | very strong activity against weeds | – | – | – | – | –
3 | COc1nc(NC(=O)NS(=O)(=O)c2c(OC)cccc2C(F)(F)F)nc(OC)n1 [Example 6] | very strong activity against weeds | 100% | 90% | 100% | 60% | 100% | 100% | 100% | 100% | 100% | 100% | very strong activity against weeds | – | – | – | – | –
4 | CCOc1cccc(C(F)(F)F)c1S(=O)(=O)NC(=O)Nc1nc(C)cc(C)n1 [Example 8] | very strong activity against weeds | 90% | 90% | 100% | 80% | – | – | – | – | – | – | very strong activity against weeds | 80% | 90% | 100% | 100% | Lolium, % damage ([11]; 30 g of ai./ha): 100%
5 | CCCOc1cccc(C(F)(F)F)c1S(=O)(=O)NC(=O)Nc1nc(OC)nc(OC)n1 [Example 10] | – | – | – | – | – | 100% | 100% | 100% | 100% | 100% | 100% | very strong activity against weeds | – | – | – | – | –
6 | CCCOc1cccc(C(F)(F)F)c1S(=O)(=O)NC(=O)Nc1nc(C)cc(C)n1 [Example 11] | – | – | – | – | – | 100% | 100% | 95% | 100% | 100% | 100% | very strong activity against weeds | – | – | – | – | –
7 | COc1nc(NC(=O)NS(=O)(=O)c2c(OC(C)C)cccc2C(F)(F)F)nc(OC)n1 [Example 13] | – | – | – | – | – | 100% | 100% | 100% | 100% | 100% | 100% | very strong activity against weeds | – | – | – | – | –
8 | Cc1cc(C)nc(NC(=O)NS(=O)(=O)c2c(OC(C)C)cccc2C(F)(F)F)n1 [Example 14] | – | – | – | – | – | – | – | – | – | – | – | very strong activity against weeds | 95% | 95% | 95% | 100% | Lolium, % damage ([11]; 30 g of ai./ha): 100%
9 | CCOc1cccc(C(F)(F)F)c1S(=O)(=O)NC(=O)Nc1nc(Cl)cc(OC)n1 [Example 16] | very strong activity against weeds | 70% | 100% | 100% | 70% | – | – | – | – | – | – | very strong activity against weeds | 100% | 90% | 80% | 100% | –
10 | CCCOc1cccc(C(F)(F)F)c1S(=O)(=O)NC(=O)Nc1nc(Cl)cc(OC)n1 [Example 17] | very strong activity against weeds | 70% | 90% | 95% | – | – | – | – | – | – | – | – | – | – | – | – | –
11 | COc1cc(OC)nc(NC(=O)NS(=O)(=O)c2c(OC)cccc2C(F)(F)F)n1 [Example 22] | very strong activity against weeds | 80% | 95% | 95% | 60% | – | – | – | – | – | – | very strong activity against weeds | 100% | 100% | 95% | 100% | Amaranthus, % damage ([6]; 30 g of ai./ha): 100%
12 | CCOc1cccc(C(F)(F)F)c1S(=O)(=O)NC(=O)Nc1nc(OC)cc(OC)n1 [Example 23] | very strong activity against weeds | 70% | 95% | 95% | 60% | – | – | – | – | – | – | – | – | – | – | – | –
13 | CCCOc1cccc(C(F)(F)F)c1S(=O)(=O)NC(=O)Nc1nc(OC)cc(OC)n1 [Example 24] | very strong activity against weeds | 70% | 95% | 95% | 60% | – | – | – | – | – | – | – | – | – | – | – | –
14 | COc1cc(OC)nc(NC(=O)NS(=O)(=O)c2c(OC(C)C)cccc2C(F)(F)F)n1 [Example 25] | very strong activity against weeds | 70% | 95% | 90% | 60% | – | – | – | – | – | – | – | – | – | – | – | –
15 | COc1cc(C)nc(NC(=O)NS(=O)(=O)c2c(C)cccc2OC(C)C)n1 [Example 33] | – | – | – | – | – | – | – | – | – | – | – | very strong activity against weeds | 70% | 90% | 100% | 100% | Lolium, % damage ([11]; 30 g of ai./ha): 95%
16 | C#CCOc1cccc(C)c1S(=O)(=O)NC(=O)Nc1nc(OC)cc(OC)n1 [Example 34] | very strong activity against weeds | 80% | 90% | 90% | 60% | – | – | – | – | – | – | very strong activity against weeds | 90% | 90% | 90% | 100% | –
17 | CCCOc1cccc(C)c1S(=O)(=O)NC(=O)Nc1nc(C)cc(OC)n1 [Example 46] | – | – | – | – | – | 90% | 100% | 80% | 100% | 100% | 90% | very strong activity against weeds | – | – | – | – | –
18 | CCOc1cccc(C(C)C)c1S(=O)(=O)NC(=O)Nc1nc(OC)nc(OC)n1 [Example 51] | very strong activity against weeds | – | – | – | – | – | – | – | – | – | – | – | – | – | – | – | degree of damage to the plants, Echinochloa [2, 14]: 90%; degree of damage to the plants, Abutilon [3, 14]: 100%; degree of damage to the plants, Matricaria [4, 14]: 90%; degree of damage to the plants, Alopecurus [5, 14]: 80%
19 | COc1nc(C)nc(NC(=O)NS(=O)(=O)c2c(C)cccc2OC2CCCC2)n1 [Example 56] | – | – | – | – | – | 100% | 100% | 100% | 90% | 100% | 100% | very strong activity against weeds | – | – | – | – | –
20 | COc1cc(OC)nc(NC(=O)NS(=O)(=O)c2c(C)cccc2OC(F)F)n1 [Example 65] | very strong activity against weeds | – | – | – | – | – | – | – | – | – | – | very strong activity against weeds | – | – | – | – | degree of damage to the plants, Echinochloa [2, 15]: 90%; degree of damage to the plants, Abutilon [3, 15]: 100%; degree of damage to the plants, Matricaria [4, 15]: 100%; degree of damage to the plants, Alopecurus [5, 15]: 90%; Amaranthus, % damage ([6]; 125 g of ai./ha): 95%; Chenopodium, % damage ([7]; 125 g of ai./ha): 95%; Steltaria, % damage ([8]; 125 g of ai./ha): 95%; Alopecurus, % damage ([10]; 125 g of ai./ha): 95%; Lolium, % damage ([11]; 125 g of ai./ha): 70%

— patent US6838414B2, “Substituted aryl sulphonyl(thio)ureas used as herbicides” (Bayer Aktiengesellschaft, priority 1996, dated 2005)
